What was measured:
Type in all cases: functional
Escherichia coli = assay: Antibacterial activity against Escherichia coli by disk diffusion method
Staphylococcus = assay: Antibacterial activity against Staphylococcus citrus by disc diffusion method
Bacillus subtilis = assay: Antibacterial activity against Bacillus subtilis by disk diffusion method
Klebsiella pneumoniae = assay: Antibacterial activity against Klebsiella pneumoniae by disk diffusion method

Compound	inhibition zone (IZ) (Escherichia coli)	inhibition zone (IZ) (Staphylococcus)	inhibition zone (IZ) (Bacillus subtilis)	inhibition zone (IZ) (Klebsiella pneumoniae)
CCOC(=O)C(Cc1ccccc1)N1C(=O)C(NC(=O)COc2ccccc2)C1/C=C/c1ccccc1 (stereo not drawn)	<6 mm	9 mm	>12 mm	<6 mm
CCOC(=O)C1C(c2ccccc2)CC2C(NC(=O)c3ccccc3)C(=O)N21 (stereo not drawn)	<6 mm	<6 mm	<6 mm	<6 mm
CCOC(=O)C1C(c2ccccc2)CC2C(NC(=O)/C=C/c3ccccc3)C(=O)N21 (stereo not drawn)	<6 mm	<6 mm	<6 mm	<6 mm
CCOC(=O)C1C(c2ccccc2)CC2C(NC(=O)Cc3ccccc3)C(=O)N21 (stereo not drawn)	<6 mm	<6 mm	<6 mm	<6 mm
CCOC(=O)C1C(c2ccccc2)CC2C(NN3C(=O)c4ccccc4C3=O)C(=O)N21 (stereo not drawn)	<6 mm	<6 mm	<6 mm	<6 mm
CCOC(=O)C1C(c2ccccc2)CC2C(NC(=O)COc3ccccc3)C(=O)N21 (stereo not drawn)	<6 mm	<6 mm	<6 mm	<6 mm
CCOC(=O)C(Cc1ccccc1)N1C(=O)C(NC(=O)/C=C/c2ccccc2)C1/C=C/c1ccccc1 (stereo not drawn)	<6 mm	<6 mm	<6 mm	<6 mm
CCOC(=O)C(Cc1ccccc1)N1C(=O)C(NC(=O)Cc2ccccc2)C1/C=C/c1ccccc1 (stereo not drawn)	<6 mm	9 mm	>12 mm	<6 mm
CCOC(=O)C(Cc1ccccc1)N1C(=O)C(NN2C(=O)c3ccccc3C2=O)C1C=O (stereo not drawn)	<6 mm	<6 mm	<6 mm	<6 mm
CCOC(=O)C(Cc1ccccc1)N1C(=O)C(NC(=O)c2ccccc2)C1/C=C/c1ccccc1 (stereo not drawn)	<6 mm	<6 mm	<6 mm	<6 mm
CCOC(=O)C(Cc1ccccc1)N1C(=O)C(NN2C(=O)c3ccccc3C2=O)C1CO (stereo not drawn)	<6 mm	<6 mm	<6 mm	<6 mm
CCOC(=O)C(Cc1ccccc1)N1C(=O)C(NN2C(=O)c3ccccc3C2=O)C1/C=C/c1ccccc1 (stereo not drawn)	<6 mm	9 mm	>12 mm	<6 mm
